The values that follow are results of earlier work, collected in patent publication EP2231118B2, “SUSPENSION COMPRISING NON-MICRONIZED EZETIMIBE MICRO-PARTICLES” (KRKA, tovarna zdravil, d.d., Novo mesto, priority 2007, dated 2009).

Take `O=C1[C@H](CC[C@H](O)c2ccc(F)cc2)[C@@H](c2ccc(O)cc2)N1c1ccc(F)cc1` [Ezetimibe, 1-(4-fluorophenyl)-3(R)-[3-(4-fluorophenyl)-3(S)-hydroxypropyl]-4(S)-(4-hydroxyphenyl)-2-azetidinone]: the solubility in water result was “practically insoluble”.
